Assay results as given in US11324798B2, “Materials and methods for treatment of inflammation” (CYTOGEL PHARMA, LLC, priority 2010, dated 2022).

Tested on: mustard oil-induced acute neurogenic inflammation in the mouse ear
Assay: 5% mustard oil-induced acute neurogenic ear swelling of the mouse, micrometry (Example 2)
Type: in vivo
Conditions: for AUC of time course of percentage ear swelling: 3 h, control 55.29±4.91
Method: For the in vivo rat and mouse experiments, 5.5 ml of the 1 mg/ml stock solution of CYT-1010 was prepared freshly every experimental day with 20% HPCD dissolved in sterile distilled water. […] The vehicle was 20% HPCD dissolved in sterile distilled water. Further dilutions of the compound for the smaller administered doses were made with this vehicle, the 500 μg/ml and 100 μg/ml concentrations looked opalescent and the lower concentrations were clear. In rats 0.1 ml/100 g, in mice 0.1 ml/10 g volumes were administered i.v. 10 min before the induction of the inflammation.
Mice were anaesthesized with urethane (1.2 g/kg i.p.) to achieve a long-lasting deep anaesthesia and minimize respiratory depression. Ten μl of 5% mustard oil dissolved in paraffin oil was smeared on both sides of both ears. Mustard oil in this concentration selectively activates Transient Receptor Potential A1 (TRPA1) on capsaicin-sensitive peptidergic sensory nerves and induces the release of sensory neuropeptides. The released CGRP and substance P (SP) in the innervated area evoke vasodilatation and plasma protein extravasation, collectively called as acute neurogenic inflammation.
CYT-1010 (1, 10, 100, 500 and 1000 μg/kg; 0.1 ml/10 g from the 0.1, 1, 10, 50 and 100 μg/ml solutions) was administered i.v. 5 min before the induction of the inflammation by mustard oil smearing. Mice in the control group were treated with the same volume of the vehicle, 20% hydroxypropyl-β-cyclodextrin dissolved in sterile distilled water. The experimental protocol is also illustrated in FIG. 1.
There were 8 mice in each CYT-1010-treated experimental group, and 9 in the vehicle-treated control group. 49 male CD1 mice (25-35 g) altogether were divided into 6 experimental groups: Group 1: vehicle-treated controls (n=9); Group 2: 1 μg/kg CYT-1010 (n=8); Group 3: 10 μg/kg CYT-1010 (n=8); Group 4: 100 μg/kg CYT-1010 (n=8); Group 5: 500 μg/kg CYT-1010 (n=8); and Group 6: 1000 μg/kg CYT-1010 (n=8).
This study was undertaken in blocks with 12-13 mice per occasion. The whole set of data was obtained during 4 days. There were 2 or 3 solvent-treated rats every day and the remaining 12 animals were randomised to receive each treatment.
The diameter of the ear was measured with an engineers' micrometer before the treatment and 4 times during the 3 h-examination period (20 min, 1 h, 2 h and 3 h). Oedema was expressed in % compared to the initial control values (Banvolgyi et al., 2004, 2005; Borzsei et al., 2008). Each of these publications is incorporated herein by reference in its entirety.
Results are expressed as the mean±s.e.m. and analyzed for statistical significance with one-way ANOVA followed by Dunnett post-hoc test when the data were compared to the control group. In the rat in vivo studies, multiple comparisons were also made with Bonferroni's modified t-test to compare the effects of the different doses to each other. *p<0.05 was considered to be significant.

## NC(Cc1ccc(O)cc1)C(=O)NC1CCCCNC(=O)C(Cc2ccccc2)NC(=O)C(Cc2c[nH]c3ccccc23)NC1=O [CYT-1010, H-Tyr-c-[D-Lys-Trp-Phe]]
1 μg/kg i.v., P<0.05
  AUC of time course of percentage ear swelling: 28.99±4.60 units
1 μg/kg, 10 μg/kg and 100 μg/kg i.v.
  Effect on mustard oil-induced acute neurogenic ear swelling: significantly reduced
10 μg/kg i.v., P<0.01
  AUC of time course of percentage ear swelling: 28.15±3.42 units
100 μg/kg i.v., P<0.01
  AUC of time course of percentage ear swelling: 26.55±5.51 units
500 μg/kg i.v., NS
  AUC of time course of percentage ear swelling: 52.24±9.70 units
1000 μg/kg i.v., NS
  AUC of time course of percentage ear swelling: 37.25±5.72 units
1, 10 and 100 μg/kg i.v., at 1 hour
  Effect on mustard oil-induced ear swelling: significant anti-edema action
1-1000 μg/kg i.v., 20 minutes post induction
  Significant inhibition of mustard oil-induced ear swelling: none of the examined CYT-1010 doses
1-1000 μg/kg i.v., throughout a 3-h period
  Anti-edema effect on the mouse ear: significant anti-edema effect
10 and 100 μg/kg i.v., both later time points (2 h, 3 h)
  Inhibitory action on ear swelling: statistically significant
500 and 1000 μg/kg i.v.
  Effect on mustard oil-induced ear swelling: did not influence ear swelling
